Data reported in the supplement of paper PMC10307832.

Key:
Assay in all cases: relative viability (nuclei count vs DMSO), 5 days (fraction); higher = more cells survive
NCI-H1650 = tested on: NCI-H1650
Method in brief: (§1)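 Values are medians from duplicate plates. Each reflects relative viability, defined as the nuclei count of treated wells over that of vehicle wells. Lung cancer cell lines in 1536-well plates were pin-tool dosed one day after seeding with one drug alone or with a fixed anchor-drug dose plus five library-drug doses (not always all listed) in √10 steps, then fixed, stained and imaged at 4× after 5 days.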

LK-2 = tested on: LK-2
Method in brief: as §1

LCLC-103H = tested on: LCLC-103H
Method in brief: as §1

NCI-H2228 = tested on: NCI-H2228
Method in brief: as §1

H3255 = tested on: H3255
Method in brief: as §1

LCLC-97TM1 = tested on: LCLC-97TM1
Method in brief: as §1

COR-L23 = tested on: COR-L23
Method in brief: as §1

NCI-H23 = tested on: NCI-H23
Method in brief: as §1

PC-14 = tested on: PC-14
Method in brief: as §1

NCI-H596 = tested on: NCI-H596
Method in brief: as §1

NCI-H727 = tested on: NCI-H727
Method in brief: as §1

COc1cc2nccc(Oc3ccc(NC(=O)Nc4cc(C)on4)c(Cl)c3)c2cc1OC [Tivozanib] + O=C(CCCCCCC(=O)Nc1ccccc1)NO [Vorinostat] (partner 1 µM)
relative viability (NCI-H1650; first compound 0.05 µM): 0.712 | relative viability (NCI-H1650; first compound 0.1581 µM): 0.606 | relative viability (NCI-H1650; first compound 0.5 µM): 0.545 | relative viability (LK-2; first compound 0.005 µM): 0.317 | relative viability (LK-2; first compound 0.01581 µM): 0.352 | relative viability (LK-2; first compound 0.05 µM): 0.33 | relative viability (LK-2; first compound 0.1581 µM): 0.185 | relative viability (LK-2; first compound 0.5 µM): 0.186 | relative viability (LCLC-103H; first compound 0.005 µM): 0.668 | relative viability (LCLC-103H; first compound 0.01581 µM): 0.809 | relative viability (LCLC-103H; first compound 0.05 µM): 0.86 | relative viability (LCLC-103H; first compound 0.1581 µM): 0.824 | relative viability (LCLC-103H; first compound 0.5 µM): 0.656 | relative viability (NCI-H2228; first compound 0.005 µM): 0.606 | relative viability (NCI-H2228; first compound 0.01581 µM): 0.723 | relative viability (NCI-H2228; first compound 0.05 µM): 0.761 | relative viability (NCI-H2228; first compound 0.1581 µM): 0.599 | relative viability (NCI-H2228; first compound 0.5 µM): 0.626 | relative viability (H3255; first compound 0.005 µM): 0.633 | relative viability (H3255; first compound 0.01581 µM): 0.794 | relative viability (H3255; first compound 0.05 µM): 0.885 | relative viability (H3255; first compound 0.1581 µM): 0.888 | relative viability (H3255; first compound 0.5 µM): 0.611 | relative viability (LCLC-97TM1; first compound 0.005 µM): 0.619 | relative viability (LCLC-97TM1; first compound 0.01581 µM): 0.69 | relative viability (LCLC-97TM1; first compound 0.05 µM): 0.686 | relative viability (LCLC-97TM1; first compound 0.1581 µM): 0.732 | relative viability (LCLC-97TM1; first compound 0.5 µM): 0.323 | relative viability (COR-L23; first compound 0.005 µM): 0.444 | relative viability (COR-L23; first compound 0.01581 µM): 0.454 | relative viability (COR-L23; first compound 0.05 µM): 0.607 | relative viability (COR-L23; first compound 0.1581 µM): 0.33 | relative viability (COR-L23; first compound 0.5 µM): 0.311 | relative viability (NCI-H23; first compound 0.005 µM): 0.522 | relative viability (NCI-H23; first compound 0.01581 µM): 0.484 | relative viability (NCI-H23; first compound 0.05 µM): 0.6 | relative viability (NCI-H23; first compound 0.5 µM): 0.375 | relative viability (PC-14; first compound 0.005 µM): 0.728 | relative viability (PC-14; first compound 0.01581 µM): 0.792 | relative viability (PC-14; first compound 0.05 µM): 0.711 | relative viability (PC-14; first compound 0.1581 µM): 0.695 | relative viability (PC-14; first compound 0.5 µM): 0.58 | relative viability (NCI-H596; first compound 0.005 µM): 0.618 | relative viability (NCI-H596; first compound 0.01581 µM): 0.569 | relative viability (NCI-H596; first compound 0.05 µM): 0.683 | relative viability (NCI-H596; first compound 0.5 µM): 0.716 | relative viability (NCI-H727; first compound 0.005 µM): 1.15 | relative viability (NCI-H727; first compound 0.01581 µM): 1.26 | relative viability (NCI-H727; first compound 0.05 µM): 1.3 | relative viability (NCI-H727; first compound 0.1581 µM): 0.841 | relative viability (NCI-H727; first compound 0.5 µM): 1.22
